From PubChem BioAssay AID248 (DTP/NCI, 2004)
“And” between values parts separate entries of the source, which are not always exact repeats. Identical values can stand only once. Inconclusive results and toxic doses are left out. No stated cut-off is given here; in the data, active means T/C of 150% or more; inactive means T/C below 125%.

Test system: L1210 leukemia ip in BDF1 mice, survival T/C
Test: NCI In Vivo Anticancer Drug Screen. Data for tumor model L1210 Leukemia (intraperitoneal) in B6D2F1 (BDF1) mice
Settings: endpoint: mean survival time, higher = longer survival
How it was run: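 Transplantable tumor model; survival measured in treated vs vehicle control mice. Value = treated/control.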

[1] = dose: 50.0 mg/kg/injection, schedule: Q01DX009 (ip), vehicle: Klucel (hydroxypropylcellulose) (HPC)
[2] = dose: 100.0 mg/kg/injection, schedule: Q01DX009 (ip), vehicle: Klucel (hydroxypropylcellulose) (HPC)
[3] = dose: 100.0 mg/kg/injection, schedule: Q01DX001 (ip), vehicle: saline
[4] = dose: 200.0 mg/kg/injection, schedule: Q01DX001 (ip), vehicle: saline
[5] = dose: 400.0 mg/kg/injection, schedule: Q01DX001 (ip), vehicle: saline
[6] = dose: 50.0 mg/kg/injection, schedule: Q01DX001 (ip), vehicle: carboxymethylcellulose (CMC)
[7] = dose: 100.0 mg/kg/injection, schedule: Q01DX001 (ip), vehicle: carboxymethylcellulose (CMC)

Measured: T/C

CN1C2CCCCC1C1CCCCC2N1C
inactive: dose: 75.0 mg/kg/injection, schedule: Q01DX001 (ip), vehicle: saline 105 % of control | dose: 150.0 mg/kg/injection, schedule: Q01DX001 (ip), vehicle: saline 94 % of control | dose: 300.0 mg/kg/injection, schedule: Q01DX001 (ip), vehicle: saline 98 % of control

OC(c1ccccc1)(c1ccccc1)C1C(=C(c2ccccc2)c2ccccc2)C1c1ccccc1 (stereo unspecified)
inactive: dose: 100.0 mg/kg/injection, schedule: Q01DX001 (ip), vehicle: steriod suspending solution 104 % of control | dose: 200.0 mg/kg/injection, schedule: Q01DX001 (ip), vehicle: steriod suspending solution 93 % of control | dose: 400.0 mg/kg/injection, schedule: Q01DX001 (ip), vehicle: steriod suspending solution 95 % of control

C[C@]12CC[C@H]3C(=CCc4cc(O)ccc43)[C@@H]1CCC2=O
inactive: dose: 100.0 mg/kg/injection, schedule: Q01DX001 (sc), vehicle: steriod suspending solution 94 % of control | dose: 200.0 mg/kg/injection, schedule: Q01DX001 (sc), vehicle: steriod suspending solution 100 % of control | dose: 400.0 mg/kg/injection, schedule: Q01DX001 (sc), vehicle: steriod suspending solution 91 % of control

N/C(=N\Nc1ccccc1)N[N+](=O)[O-]
inactive: dose: 175.0 mg/kg/injection, schedule: Q01DX001 (ip), vehicle: acetone 100 % of control | dose: 265.0 mg/kg/injection, schedule: Q01DX001 (ip), vehicle: acetone 96 % of control | dose: 400.0 mg/kg/injection, schedule: Q01DX001 (ip), vehicle: acetone 94 % of control | dose: 600.0 mg/kg/injection, schedule: Q01DX001 (ip), vehicle: acetone 104 % of control

O=C(O)c1cccc(F)n1
inactive: dose: 100.0 mg/kg/injection, schedule: Q04DX003 (ip), vehicle: saline with Tween-80 91 % of control | dose: 200.0 mg/kg/injection, schedule: Q04DX003 (ip), vehicle: saline with Tween-80 89 % of control

COc1ccc(NC(=O)Oc2ccccc2C(N)=O)c(OC)c1
inactive: dose: 25.0 mg/kg/injection, schedule: Q01DX009 (ip), vehicle: Klucel (hydroxypropylcellulose) (HPC) 109 % of control | [1] 102 % of control | [2] 103 % of control and 112 % of control

OCC1(c2ccccc2)OC1c1ccccc1 (stereo unspecified)
inactive: [1] 95 % of control | dose: 75.0 mg/kg/injection, schedule: Q04DX003 (ip), vehicle: Klucel (hydroxypropylcellulose) (HPC) 102 % of control | [2] 96 % of control | dose: 150.0 mg/kg/injection, schedule: Q04DX003 (ip), vehicle: Klucel (hydroxypropylcellulose) (HPC) 102 % of control | dose: 200.0 mg/kg/injection, schedule: Q01DX009 (ip), vehicle: Klucel (hydroxypropylcellulose) (HPC) 96 % of control | dose: 300.0 mg/kg/injection, schedule: Q04DX003 (ip), vehicle: Klucel (hydroxypropylcellulose) (HPC) 107 % of control

Cc1cc(Cc2cc(C)c(N)cc2N)c(N)cc1N
inactive: [3] 88 % of control | [4] 93 % of control | [5] 90 % of control

O=C(/C=C/c1ccncc1)Nc1ccccc1
inactive: dose: 25.0 mg/kg/injection, schedule: Q04DX002 (ip), vehicle: Klucel (hydroxypropylcellulose) (HPC) 117 % of control | dose: 50.0 mg/kg/injection, schedule: Q04DX002 (ip), vehicle: Klucel (hydroxypropylcellulose) (HPC) 98 % of control | dose: 100.0 mg/kg/injection, schedule: Q04DX002 (ip), vehicle: Klucel (hydroxypropylcellulose) (HPC) 98 % of control

CC(=O)Nc1cccc2c1CCCC2
inactive: dose: 100.0 mg/kg/injection, schedule: Q01DX009 (ip), vehicle: gum acacia 98 % of control | dose: 100.0 mg/kg/injection, schedule: Q04DX003 (ip), vehicle: gum acacia 95 % of control | dose: 200.0 mg/kg/injection, schedule: Q01DX009 (ip), vehicle: gum acacia 97 % of control | dose: 200.0 mg/kg/injection, schedule: Q04DX003 (ip), vehicle: gum acacia 96 % of control | dose: 400.0 mg/kg/injection, schedule: Q01DX009 (ip), vehicle: gum acacia 103 % of control | dose: 400.0 mg/kg/injection, schedule: Q04DX003 (ip), vehicle: gum acacia 95 % of control

C/C(=N/OC(=O)N(C)C)c1cccs1
inactive: dose: 5.0 mg/kg/injection, schedule: Q01DX001 (ip), vehicle: other 103 % of control | dose: 10.0 mg/kg/injection, schedule: Q01DX001 (ip), vehicle: other 94 % of control | dose: 20.0 mg/kg/injection, schedule: Q01DX001 (ip), vehicle: other 97 % of control | dose: 40.0 mg/kg/injection, schedule: Q01DX001 (ip), vehicle: other 92 % of control

CCCCCC(C)(O)CCC (stereo unspecified)
inactive: dose: 50.0 mg/kg/injection, schedule: Q01DX001 (ip), vehicle: saline 93 % of control | [3] 93 % of control | [4] 93 % of control

C[N+](C)(C)Cc1c(C(O)(c2ccccc2)c2ccccc2)ccc2ccccc12
inactive: [6] 94 % of control | [7] 96 % of control

CCCCCCCNC(=O)Nc1ccc(Cl)c(Cl)c1
inactive: [3] 95 % of control | [4] 90 % of control | [5] 97 % of control

C1CCC(CCC(CCCC2CCCC2)CCCC2CCCC2)CC1
inactive: dose: 100.0 mg/kg/injection, schedule: Q01DX001 (ip), vehicle: saline with Tween-80 97 % of control | dose: 200.0 mg/kg/injection, schedule: Q01DX001 (ip), vehicle: saline with Tween-80 92 % of control | dose: 400.0 mg/kg/injection, schedule: Q01DX001 (ip), vehicle: saline with Tween-80 101 % of control

CC1C(=O)OC2CC[N+]3(CC(=O)c4ccc(Br)cc4)CC=C(COC(=O)C(C)(O)C1(C)O)C23 (stereo unspecified)
inactive: dose: 100.0 mg/kg/injection, schedule: Q04DX003 (ip), vehicle: saline 104 % of control | dose: 200.0 mg/kg/injection, schedule: Q04DX003 (ip), vehicle: saline 102 % of control | dose: 400.0 mg/kg/injection, schedule: Q04DX003 (ip), vehicle: saline 87 % of control

CC1([N+](=O)[O-])COP(=O)(NCc2ccccc2)OC1 (stereo unspecified)
inactive: [6] 97 % of control | [7] 107 % of control | dose: 200.0 mg/kg/injection, schedule: Q01DX001 (ip), vehicle: carboxymethylcellulose (CMC) 109 % of control | dose: 400.0 mg/kg/injection, schedule: Q01DX001 (ip), vehicle: carboxymethylcellulose (CMC) 97 % of control

CCCCC[C@H](CN(C)C)[C@H](O)/C=C/c1ccc(Cl)cc1
inactive: dose: 12.5 mg/kg/injection, schedule: Q04DX002 (ip), vehicle: saline 113 % of control | dose: 25.0 mg/kg/injection, schedule: Q04DX002 (ip), vehicle: saline 110 % of control | dose: 50.0 mg/kg/injection, schedule: Q04DX002 (ip), vehicle: saline 102 % of control
